Each structure is given as a SMILES string.

This data set can be described thus: Thermal decomposition by DSC. Type of data set: physicochemical. From the text: Sharp threshold of thermal decomposition within the required temperature range characterizes the new pyridine N-oxide based azo dyes which are assumed to be desirable for the application in optical layers for optical data recording.

In the case of `CCN1C(O)=C(/N=N/c2c(O)ccc[n+]2[O-])C=CC1=C(C#N)C#N` [(12)], the “DSC: dec. at” value (DSC) was found to be 260 °C. For the same molecule, the Dec.Pt (Table 1 summary) came to 260 °C.
